From patent publication US10391081B2, “FGFR gatekeeper mutant gene and drug targeting same” (CHUGAI SEIYAKU KABUSHIKI KAISHA, priority 2013, dated 2019)

Molecular target: T1, TEL-fused FGFR2 V564F mutant polypeptide (Homo sapiens, UniProt P21802, V564F)
T1 construct: expressed in transfected cells; for A6/A7 grown as subcutaneous tumours in BALB/c nude mice
Assay: In vitro cell proliferation inhibition (WST-8), Ba/F3 strain stably expressing TEL-fused FGFR2 V564F mutant
Type: cell-based
Details: cultured four days, FIG. 3
Source text: A polynucleotide encoding the dimerization domain of wild-type TEL (SEQ ID NO: 33) and a polynucleotide encoding the intracellular domain of wild-type FGFR2 (SEQ ID NO: 1) were fused by a PCR-based site-directed mutagenesis method to produce a polynucleotide (SEQ ID NO: 11) encoding the TEL-fused wild-type FGFR2 (SEQ ID NO: 34). Using the polynucleotide encoding the TEL-fused wild-type FGFR2 as a template, a polynucleotide (SEQ ID NO: 12) encoding the TEL-fused FGFR2 V564F mutant (SEQ ID NO: 35) was prepared by a PCR-based site-directed mutagenesis method.

T1 sequence (P21802 with tags, fused parts or gaps V564F): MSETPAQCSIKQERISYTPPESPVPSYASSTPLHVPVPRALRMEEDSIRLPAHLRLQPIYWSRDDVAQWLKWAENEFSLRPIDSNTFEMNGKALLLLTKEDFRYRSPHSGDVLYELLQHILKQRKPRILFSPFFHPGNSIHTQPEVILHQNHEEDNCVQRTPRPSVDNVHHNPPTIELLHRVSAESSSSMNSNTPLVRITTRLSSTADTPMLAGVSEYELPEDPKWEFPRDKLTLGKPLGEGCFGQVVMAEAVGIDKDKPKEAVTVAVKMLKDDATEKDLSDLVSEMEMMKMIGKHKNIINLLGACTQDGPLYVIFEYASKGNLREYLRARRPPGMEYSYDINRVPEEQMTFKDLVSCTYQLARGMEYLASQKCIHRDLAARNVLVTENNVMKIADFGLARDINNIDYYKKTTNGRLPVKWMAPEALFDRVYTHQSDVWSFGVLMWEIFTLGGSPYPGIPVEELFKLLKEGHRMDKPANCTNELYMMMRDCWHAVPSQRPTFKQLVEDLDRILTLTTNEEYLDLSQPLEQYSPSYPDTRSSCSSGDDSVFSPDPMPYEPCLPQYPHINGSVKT

| Structure (SMILES) | cell proliferation-inhibiting activity compared to the strain stably expressing TEL-fused wild-type FGFR2 |
| --- | --- |
| CCN1CCN(c2ccc(Nc3cc(N(C)C(=O)Nc4c(Cl)c(OC)cc(OC)c4Cl)ncn3)cc2)CC1 [Compound D, BGJ-398] | greatly weakened |
| COc1cc2c(Oc3ccc4[nH]c(C)cc4c3F)ncnc2cc1OCCCN1CCCC1 [E, cediranib] | greatly weakened |
